System: P. aeruginosa strains
Assay type: cell-based, Pseudomonas aeruginosa
Procedure: The pharmacokinetics simulation was based on data from the clinical study disclosed in Example 2.
In Vitro PK-PD Model: Six medium sized hollow-fiber cartridges (FiberCell Systems) were used per experiment. Three strains studied in duplicate were used for each experiment. Log-phase cells were inoculated and incubated for 2 hours prior to the start of treatment to achieve about 10^8 CFU/mL. Target PK parameters are listed in Tables E and F. The exposures were based on the published literatures disclosed in Example 2. Samples were collected from the central compartment for the determination of drug concentrations over a 32 hour period and were analyzed using an LC-MS/MS method.

## C[C@@H](O)[C@H]1C(=O)N2C(C(=O)O)=C(S[C@@H]3CN[C@H](C(=O)N(C)C)C3)[C@H](C)[C@H]12 [meropenem, Meropenem]
  efficacy, number of strains: effective against 2 out of 3 strains
P. aeruginosa PAM3377, human equivalent 2 g q8h by 3 hour infusion
  Change in Log CFU over 32 hours: 3.7 Log CFU

From patent US20190105337A1, “METHODS OF TREATING BACTERIAL INFECTIONS” (priority 2015, published 2019)
